# Test results reported in patent US20170280720A1, “ARGININE […] INHIBITORS AND USES THEREOF” (EPIZYME, INC., priority 2014, published 2017).
# Target: T1, human PRMT1 (Homo sapiens, UniProt Q99873)
# T1 construct: GST-tagged PRMT1; made in house; host or cells: High Five insect cells (baculovirus, pFastBacI)
# Test: PRMT1 biochemical assay (3H-SAM Flashplate, peptide substrate)
# Conditions: read-out: PRMT1_ IC50
# Outline: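 FLAG-tagged full-length human PRMT1 (0.5 nM, GST-tagged, insect-cell expressed) preincubated 30 min at RT with compound, then biotinylated histone H4 36-50 peptide (20 nM) plus 200 nM 3H-SAM and 1.5 uM SAM in Bicine pH 7.6, 2% DMSO. 3H-methylated peptide captured on streptavidin Flashplate; IC50 from 3/4-parameter fit.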
# T1 sequence (Q99873 with tags, fused parts or gaps): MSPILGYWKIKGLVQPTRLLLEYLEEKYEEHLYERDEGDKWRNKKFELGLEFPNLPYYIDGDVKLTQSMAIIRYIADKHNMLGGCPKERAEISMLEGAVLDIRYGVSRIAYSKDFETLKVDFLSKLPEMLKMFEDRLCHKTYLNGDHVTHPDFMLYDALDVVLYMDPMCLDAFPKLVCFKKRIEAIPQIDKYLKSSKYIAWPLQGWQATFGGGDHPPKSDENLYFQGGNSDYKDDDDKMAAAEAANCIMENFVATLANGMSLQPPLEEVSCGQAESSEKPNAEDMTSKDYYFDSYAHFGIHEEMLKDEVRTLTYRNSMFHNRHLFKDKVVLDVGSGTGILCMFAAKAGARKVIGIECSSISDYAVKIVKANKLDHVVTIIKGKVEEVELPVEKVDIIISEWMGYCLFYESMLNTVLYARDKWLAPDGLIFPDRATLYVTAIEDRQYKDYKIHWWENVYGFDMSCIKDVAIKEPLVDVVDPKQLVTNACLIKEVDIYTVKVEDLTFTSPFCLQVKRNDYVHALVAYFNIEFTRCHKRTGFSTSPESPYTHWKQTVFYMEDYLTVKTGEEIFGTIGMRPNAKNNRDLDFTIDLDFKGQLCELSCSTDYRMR
row,IC50 [nM],Structure (SMILES)
1,140,CCn1ncc2c(C(=O)N[C@@H](C)c3ccccc3)cc(-c3cccc(CN(C)CCNC)c3)nc21 [Compound 33]
2,196,CC(C)n1cnc2cc(-c3ccc(CN(C)CCN)cc3)ccc21 [Compound 46]
3,97.4,CNCCN(C)Cc1cccc(-c2cc(C(=O)N(C)Cc3ccccc3)c3cnn(C(C)C)c3n2)c1 [Compound 24]
